Laboratory results as given in article PMC8222713, “Variation of Two S3b Residues in KV4.1–4.3 Channels Underlies Their Different Modulations by Spider Toxin κ-LhTx-1” (Frontiers in Pharmacology, 2021).
Where a SMILES comes first, the peptide text is derived from it. Bridges are numbered along the chain shown (N, C = ends).

Legend:
KV4.1/P282T mutant = assay: Whole-cell patch clamp, KV4.1/P282T in CHO-K1 cells; type: cell-based, mouse
Description: (§1) The cDNA of hKV1.1, hKV1.3, rKV1.4, hKV1.5, rKV2.1, hKV3.1–3.4, mKV4.1, rKV4.2, and rKV4.3 were subcloned in the eukaryotic expression vector pCDNA3.1 or pCMV-blank. Channel mutants were made by a site-directed mutation method. Briefly, a pair of oppositely directed primers with 15 bp overlap at their 5′ ends and the designed mutation site were used to amplify the parental channel plasmid, then the PCR mix was treated with DpnI to remove the template. 10 μL digestion mix was directly used to transform 100 μL DH5α chemical competent cells. The correct mutation made by this procedure was finally confirmed by DNA sequencing. CHO-K1 cells (ATCC® CCL-61™) were grown in DMEM-F12 mixed medium (1:1) supplemented with 10% FBS and maintained in standard conditions (saturated humidity, 37°C, 5% CO2). Channel plasmid was co-transfected with pEGFP-N1 (encodes the green fluoresence protein) into CHO-K1 cells using lipofectamine 2000 following the manufacturer’s instructions. 4–6 h after transfection, cells were seeded onto poly-lysine (PLL) coated coverslips, and 24–36 h later, transfected cells were ready for patch-clamp analysis. It should be note that KV4.2 and its mutants were also co-expressed with hKChIP1 to promote their functional expressions.
(§2) Whole-cell patch clamp recording was performed in an electrophysiology platform equipped with MultiClamp 700B amplifier and Axon Digidata 1550 AD/DA convertor (Axon Instruments, Irvine, CA, United States). Data were acquired using the pClamp software (Axon Instruments, Irvine, CA, United States). All experiments were performed at room temperature. The bath solution contains (in mM): 140 NaCl, 5 KCl, 1 MgCl2, 2 CaCl2, 10 glucose, and 10 HEPES (pH = 7.3). The pipette solution contains (in mM): 140 KCl, 2.5 MgCl2, 11 EGTA, and 10 HEPES (pH = 7.3). Series resistance was kept below 10 MΩ and compensated to 80%. The concentration–response curves were fitted by a Hill logistic equation to estimate the potency (IC50) of the toxin. The whole cell conductance (G) at each depolarizing voltage (V) was determined using the equation: G = I/(V−Vrev), where I and Vrev represents the current amplitude and the reversal potential, respectively. In the present study, Vrev for K^+ current is determined to be −85.61 mV using the Nernst equation. G-V curve was obtained by plotting the normalized G as a function of V and fitted by the Boltzmann equation: y = 1/{1 + exp [(Va−V)/K]}, in which Va, V, and K represents half-maximum activation voltage, test voltage and slope factor, respectively. The steady-state fast inactivation of KV4 channels was measured using a classical two-pulses protocol: cell was held at −120 mV, and a train of conditional voltages (−120–40 mV, in 10 mV increment, 1,000 ms) were applied to induce channel inactivation, followed by a +60 mV test pulse (300 ms) to assess the proportion of non-inactivated channels; the sweep interval was set to 10 s. Currents at the test pulse (I) were normalized to the maximum value (Imax) and plotted as a function of the conditional voltage (V), the curve was fitted by the Boltzmann equation: I/Imax = A + (1−A)/{1 + exp [(V−Vh)/K]}, where Vh is the half-maximum inactivation voltage, A represents the minimum channel availability, and K is the slope factor. Gating currents of KV4.1–4.3 channels were measured as previously reported ([Tilley et al., 2019]). Briefly, the ionic pore currents were abolished by replacing K^+ with NMDG^+ in the pipette solution, and 10 µM Cs^+ was present in the bath solution to occupy the selectivity filter of KV channels to prevent decay of the gating currents during recording.
(§3) Data were presented as MEAN ± SEM, n represents the number of separate experimental cells. Data were analyzed using the software Clampfit 10.5 (Axon Instruments, Irvine, CA, United States), Graphpad Prism 5.01 (GraphPad Software, La Jolla, CA, United States) and Excel 2010 (Microsoft Corporation, Redmond, WA, United States). […]

KV4.3 channel (rKV4.3) = target: T1, KV4.3 channel (rKV4.3) (Rattus norvegicus, UniProt Q62897); assay: Whole-cell patch clamp, KV4.3 in CHO-K1 cells; type: cell-based
T1 construct: expressed in transfected cells; host or cells: CHO-K1 (transient, co-transfected with pEGFP-N1)
T1 sequence (Q62897 1-655): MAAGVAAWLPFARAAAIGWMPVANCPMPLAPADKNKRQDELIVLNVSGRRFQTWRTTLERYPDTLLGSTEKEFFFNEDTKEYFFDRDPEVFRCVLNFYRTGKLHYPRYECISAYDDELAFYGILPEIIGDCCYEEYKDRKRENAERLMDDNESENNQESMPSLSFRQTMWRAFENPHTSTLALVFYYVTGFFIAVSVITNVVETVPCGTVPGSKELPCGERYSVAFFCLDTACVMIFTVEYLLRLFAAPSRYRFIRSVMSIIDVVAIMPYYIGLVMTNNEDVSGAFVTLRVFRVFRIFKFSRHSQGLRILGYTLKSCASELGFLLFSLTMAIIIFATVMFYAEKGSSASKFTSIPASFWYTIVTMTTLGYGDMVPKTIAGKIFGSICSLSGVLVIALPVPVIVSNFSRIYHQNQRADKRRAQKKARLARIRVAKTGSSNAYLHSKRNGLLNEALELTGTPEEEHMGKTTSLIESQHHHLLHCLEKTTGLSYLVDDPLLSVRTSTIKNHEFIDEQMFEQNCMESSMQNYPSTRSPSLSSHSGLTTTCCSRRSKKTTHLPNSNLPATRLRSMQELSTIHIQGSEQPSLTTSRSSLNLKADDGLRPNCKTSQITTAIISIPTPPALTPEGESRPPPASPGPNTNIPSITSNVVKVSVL
Description: as §1, §2, §3

KV4.3/T277P mutant = assay: Whole-cell patch clamp, KV4.3/T277P in CHO-K1 cells; type: cell-based, rat
Description: as §1, §2, §3

KV1.3 channel (hKV1.3) = assay: Whole-cell patch clamp selectivity, KV1.3; type: cell-based, human; settings: KV1.3, 10 µM, n = 5
Description: The cDNA of hKV1.1, hKV1.3, rKV1.4, hKV1.5, rKV2.1, hKV3.1–3.4, mKV4.1, rKV4.2, and rKV4.3 were subcloned in the eukaryotic expression vector pCDNA3.1 or pCMV-blank. Channel mutants were made by a site-directed mutation method. Briefly, a pair of oppositely directed primers with 15 bp overlap at their 5′ ends and the designed mutation site were used to amplify the parental channel plasmid, then the PCR mix was treated with DpnI to remove the template. 10 μL digestion mix was directly used to transform 100 μL DH5α chemical competent cells. The correct mutation made by this procedure was finally confirmed by DNA sequencing. […] 4–6 h after transfection, cells were seeded onto poly-lysine (PLL) coated coverslips, and 24–36 h later, transfected cells were ready for patch-clamp analysis. […]
Whole-cell patch clamp recording was performed in an electrophysiology platform equipped with MultiClamp 700B amplifier and Axon Digidata 1550 AD/DA convertor (Axon Instruments, Irvine, CA, United States). […] The whole cell conductance (G) at each depolarizing voltage (V) was determined using the equation: G = I/(V−Vrev), where I and Vrev represents the current amplitude and the reversal potential, respectively. In the present study, Vrev for K^+ current is determined to be −85.61 mV using the Nernst equation. […] Gating currents of KV4.1–4.3 channels were measured as previously reported ([Tilley et al., 2019]). […]

[1] = 10 μM κ-LhTx-1, G-V, mean ± SEM, n = 6
[2] = 10 μM κ-LhTx-1, two-pulse protocol, mean ± SEM, n = 6
[3] = Va shift by 10 μM κ-LhTx-1 vs control, mean ± SEM
[4] = Vh shift by 10 μM κ-LhTx-1 vs control, mean ± SEM
[5] = 10 μM κ-LhTx-1, KV4.3, G-V, mean ± SEM, n = 10
[6] = 10 μM κ-LhTx-1, KV4.3, two-pulse protocol, mean ± SEM, n = 7

Compound: CC[C@H](C)[C@@H]1NC(=O)[C@H](CCC(N)=O)NC(=O)[C@@H]2CSSC[C@@H]3NC(=O)[C@H](CC(C)C)NC(=O)[C@H](CC(N)=O)NC(=O)[C@H](CCSC)NC(=O)[C@H](Cc4c[nH]c5ccccc45)NC(=O)[C@H](CO)NC(=O)[C@H](C)NC(=O)[C@@H](NC(=O)[C@H](CCC(=O)O)NC(=O)[C@H](CCC(N)=O)NC(=O)[C@H](C)NC(=O)[C@H](CC(=O)O)NC(=O)[C@@H](N)CCC(=O)O)CSSC[C@H](NC(=O)[C@H](CSSC[C@@H](C(=O)N[C@@H](CCCCN)C(=O)N[C@@H](Cc4ccc(O)cc4)C(=O)N[C@@H](CCCCN)C(=O)N[C@@H](CC(C)C)C(N)=O)NC(=O)[C@H](Cc4c[nH]c5ccccc45)NC1=O)NC(=O)[C@H](CCCCN)NC(=O)[C@H](CCCCN)NC(=O)[C@H](CCC(=O)O)NC(=O)CNC3=O)C(=O)N[C@@H](CCC(=O)O)C(=O)NCC(=O)N[C@@H](Cc1ccc(O)cc1)C(=O)N[C@@H](C(C)C)C(=O)N2 [κ-LhTx-1] (H-EDAQECASWMNLCGEKKCCEGYVCQIWCKYKL-NH2; disulfide 6-19, 13-24, 18-28 (inferred); N-terminus and C-terminus assumed)
- Va (steady-state activation) (KV4.1/P282T mutant; [1]): 52.55 ± 1.38 mV
- k, slope factor (steady-state activation) (KV4.1/P282T mutant; [1]): 18.09 ± 0.43 mV
- Vh (steady-state inactivation) (KV4.1/P282T mutant; [2]): -29.12 ± 1.84 mV
- k, slope factor (steady-state inactivation) (KV4.1/P282T mutant; [2]): 10.73 ± 0.41 mV
- ∆Va and inhi%(min) vs wild-type KV4.1 (KV4.1/P282T mutant; 10 μM, close to values of KV4.2/KV4.3): significantly reduced compared with those for KV4.1
- ∆Va (steady-state activation) (KV4.1/P282T mutant; [3]): 52.58 ± 1.86 mV
- ∆Vh (steady-state inactivation) (KV4.1/P282T mutant; [4]): 26.75 ± 2.85 mV
- Va (steady-state activation) (KV4.3 channel (rKV4.3); [5]): 46.86 ± 1.52 mV
- k, slope factor (steady-state activation) (KV4.3 channel (rKV4.3); [5]): 20.45 ± 0.30 mV
- Vh (steady-state inactivation) (KV4.3 channel (rKV4.3); [6]): -30.87 ± 2.23 mV
- k, slope factor (steady-state inactivation) (KV4.3 channel (rKV4.3); [6]): 6.21 ± 0.43 mV
- reversibility of inhibition (KV4.3 channel (rKV4.3); KV4.3): in a reversible manner
- voltage-dependence of inhibition (KV4.3 channel (rKV4.3); KV4.3, 10 µM, inhibition ratio at each depolarizing voltage, n = 5–8): decreased quickly with the increment of the depolarizing voltage
- I-V relationship shift (KV4.3 channel (rKV4.3); KV4.3, 10 µM, n = 5–8): only a small shift
- current inhibition at Va (KV4.3 channel (rKV4.3); KV4.3 at Va depolarizing voltage): almost fully inhibited
- ∆Va (steady-state activation) (KV4.3 channel (rKV4.3); Va shift by 10 μM κ-LhTx-1 vs control, KV4.3, mean ± SEM): 39.88 ± 2.19 mV
- ∆Vh (steady-state inactivation) (KV4.3 channel (rKV4.3); Vh shift by 10 μM κ-LhTx-1 vs control, KV4.3, mean ± SEM): 14.83 ± 3.34 mV
- Va (steady-state activation) (KV4.3/T277P mutant; [1]): 49.17 ± 0.88 mV
- k, slope factor (steady-state activation) (KV4.3/T277P mutant; [1]): 22.21 ± 1.64 mV
- Vh (steady-state inactivation) (KV4.3/T277P mutant; [2]): -35.46 ± 1.68 mV
- k, slope factor (steady-state inactivation) (KV4.3/T277P mutant; [2]): 8.50 ± 0.42 mV
- inhi%(min) vs wild-type KV4.3 (KV4.3/T277P mutant; 10 μM, +100 mV): significantly elevated inhi%(min) value
- ∆Va (steady-state activation) (KV4.3/T277P mutant; [3]): 40.47 ± 2.79 mV
- ∆Vh (steady-state inactivation) (KV4.3/T277P mutant; [4]): 11.63 ± 2.17 mV
- effect on currents (KV1.3 channel (hKV1.3)): did not remarkably affect the currents
